In brackets after ≈: the same amount, converted by molar mass. Where two headings read alike, the source gives them in different places. Peptide text beside a SMILES is read from it.
Experiments:
S. aureus M838-17 (MRSA) = assay: microbe, parasite or virus in culture; type: cell-based, Staphylococcus aureus; conditions: for MIC: read-out: MIC S. aureus M838-17 (MRSA)
How it was run: (§1)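 Broth microdilution: log-phase cultures in tryptic soy broth diluted to OD600 0.001, exposed to two-fold diluted peptides at 37° C overnight, growth read at 630 nm. Medium effects on S. aureus USA300 tested with up to 200 mM NaCl, 2 mM CaCl2, 5-10% human serum, mouse plasma, fluids or tissue homogenate supernatants.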

S. aureus USA300 = assay: microbe, parasite or virus in culture; type: cell-based, Staphylococcus aureus
How it was run: as §1

P. aeruginosa E411-17 = assay: microbe, parasite or virus in culture; type: cell-based, Pseudomonas aeruginosa
How it was run: as §1

K. pneumoniae E406-17 = assay: microbe, parasite or virus in culture; type: cell-based, Klebsiella pneumoniae
How it was run: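 Broth microdilution in tryptic soy broth: log-phase cultures (OD600 ≈0.5) diluted to OD600 0.001, given two-fold peptide dilutions, incubated overnight at 37° C. Growth read at 630 nm.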

E. coli E423-17 = assay: microbe, parasite or virus in culture; type: cell-based, Escherichia coli
How it was run: as §1

Hemolytic assay = type: cell-based, human; conditions: human
How it was run: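 Washed hRBCs (2% v/v) exposed to peptide for 1 h at 37 °C, then centrifuged and hemoglobin in supernatant read at 545 nm. Lysis normalized to Triton X-100 (2% or 1%; 100%) and PBS (0%); HL50 is the peptide concentration giving 50% lysis, and CSI is HL50/MIC.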

[1] = In vivo toxicity after i.p. injection; parameters: species or system mice; conditions: for Animal death: 10, 20, and 30 mg/kg i.p., five-day experiment; for Mobility: higher peptide doses
Procedure: Because DFT561 had crossed multiple in vitro barriers (Table 5), its in vivo toxicity and efficacy was tested. A well-established neutropenic mouse model was used, which is often utilized to evaluate the efficacy of antibiotics and peptide mimics (Ambrose, et al. (2012) Clin. Infect. Dis., 54(3):S220-8; Radzishevsky, et al. (2007) Nat. Biotechnol., 25:657-659). In this model, the effect of immune cells on bacterial killing is minimized via two injections of cyclophosphamide before infection (FIG. 5). To evaluate the safety of the peptide in vivo, the toxicity of DFT561 injected intraperitoneally (i.p.) was compared at […] per mouse. […] In addition, alanine transaminase normally resides in serum and tissues but can be released after liver injury. Differences in a quantitative alanine transaminase assay of liver homogenates from mice treated at 0, 10, and 20 mg/kg was not observed.
Neutropenic mice are widely accepted for systemic efficacy evaluation of antibiotics (Zhao, et al. (2016) Bioorg. Med. Chem. 24:6390-6400; Craig, et al. (1991) J. Antimicrob. Chemother., 27:29-40). This model enables better evaluation of compound potency by minimizing the bacterial clearance effect of the immune system. Using this model, the efficacy of horine against S. aureus USA300 and verine against K. pneumonia E406-17 was tested. C57BL/6 mice were made neutropenic by two injections of cyclophosphamide intraperitoneally (i.p.). The acute toxicity of horine and verine was investigated by i.p. injecting them into mice at 10, 20, and 30 mg/kg body weight.

[2] = E411-17, read-out: MIC P. aeruginosa E411-17
[3] = E406-17, read-out: MIC K. pneumoniae E406-17
[4] = E423-17, read-out: MIC E. coli E423-17

CN[C@H](CC(C)C)C(=O)N[C@H]1C(=O)N[C@@H](CC(N)=O)C(=O)N[C@H]2C(=O)N[C@H]3C(=O)N[C@H](C(=O)N[C@H](C(=O)O)c4cc(O)cc(O)c4-c4cc3ccc4O)[C@H](O)c3ccc(c(Cl)c3)Oc3cc2cc(c3O[C@@H]2O[C@H](CO)[C@@H](O)[C@H](O)[C@H]2O[C@H]2C[C@](C)(N)[C@H](O)[C@H](C)O2)Oc2ccc(cc2Cl)[C@H]1O [Vancomycin]
MIC (S. aureus M838-17 (MRSA); Staphylococcus aureus, MRSA): 0.78 µM (≈ 1.13 µg/mL)
MIC (S. aureus USA300; Staphylococcus aureus, MRSA / USA300, read-out: MIC S. aureus USA300 (MRSA)): 1 µM (≈ 1.45 µg/mL)
MIC (P. aeruginosa E411-17; Pseudomonas aeruginosa, E41117, read-out: MIC P. aeruginosa E411-17): > 8 µM
MIC (K. pneumoniae E406-17; Klebsiella pneumoniae, E40617, read-out: MIC K. pneumoniae E406-17): > 8 µM
MIC (E. coli E423-17; Escherichia coli, E42317, read-out: MIC E. coli E423-17): > 8 µM

CC(C)C[C@H](NC(=O)[C@H](Cc1c[nH]c2ccccc12)NC(=O)[C@H](Cc1c[nH]c2ccccc12)NC(=O)[C@@H](N)Cc1c[nH]c2ccccc12)C(=O)N[C@@H](CCCNC(=N)N)C(=O)N[C@@H](CCCNC(=N)N)C(=O)N[C@@H](CCCNC(=N)N)C(=O)N[C@@H](Cc1c[nH]c2ccccc12)C(N)=O [Horine, WWWLRRRW] (H-WWWLRRRW-NH2; N-terminus and C-terminus assumed)
MIC (S. aureus USA300; USA300, read-out: MIC S. aureus USA300 (MRSA)): 4 µM (≈ 5.37 µg/mL)
HC50 at 1 hour (Hemolytic assay): > 200 µM
MIC (P. aeruginosa E411-17; [2]): >32 µM
MIC (K. pneumoniae E406-17; [3]): >32 µM
MIC (E. coli E423-17; [4]): >32 µM
Animal death [1]: no animal death
Mobility [1]: initial short-term reduced mobility

CC(C)C[C@H](NC(=O)[C@H](CC(C)C)NC(=O)[C@H](CCCCN)NC(=O)[C@H](CC(C)C)NC(=O)CNC(=O)[C@H](CC(C)C)NC(=O)[C@H](CO)NC(=O)[C@H](CC(C)C)NC(=O)[C@H](CC(C)C)NC(=O)[C@H](CC(C)C)NC(=O)[C@H](CCCCN)NC(=O)[C@H](CC(C)C)NC(=O)CN)C(N)=O [DFT561, GLKLLLSLGLKLL] (H-GLKLLLSLGLKLL-NH2; N-terminus and C-terminus assumed)
MIC (S. aureus M838-17 (MRSA); M838-17): 3.1 µM (≈ 4.28 µg/mL)
MIC (S. aureus USA300; USA300): 1.6 µM (≈ 2.21 µg/mL)
MIC SA (S. aureus USA300) (S. aureus USA300; USA300): 1.6 µM (≈ 2.21 µg/mL)
MIC (S. aureus USA300; USA300, pH 6.8): 3.1 µM (≈ 4.28 µg/mL)
MIC (S. aureus USA300; USA300, pH 7.4): 1.6 µM (≈ 2.21 µg/mL)
MIC (S. aureus USA300; USA300, pH 8): 1.6 µM (≈ 2.21 µg/mL)
HC50 at 1 h (Hemolytic assay; human red blood cells, 2% (v/v)): > 300 µM
MIC (P. aeruginosa E411-17; [2]): >50 µM
MIC (K. pneumoniae E406-17; [3]): >50 µM
MIC (E. coli E423-17; [4]): >50 µM
Differences in alanine transaminase assay of liver homogenates ([1]; 0, 10, and 20 mg/kg): not observed
Toxicity (conclusion) ([1]; 5 mg/kg): not toxic
Behaviour of mice ([1]; 10 mg/kg i.p.): behaved normal
Weight losses ([1]; 10, 20, 40 mg/kg i.p.): statistically insignificant
Behaviour of mice ([1]; 20 or 40 mg/kg i.p.): reduced activity for 30 minutes

CC(C)[C@H](NC(=O)[C@H](Cc1c[nH]c2ccccc12)NC(=O)[C@H](Cc1c[nH]c2ccccc12)NC(=O)[C@H](Cc1c[nH]c2ccccc12)NC(=O)[C@H](Cc1c[nH]c2ccccc12)NC(=O)[C@H](CCCNC(=N)N)NC(=O)[C@H](CCCNC(=N)N)NC(=O)[C@@H](N)CCCNC(=N)N)C(N)=O [Verine, RRRWWWWV] (H-RRRWWWWV-NH2; N-terminus and C-terminus assumed)
MIC S. aureus M838-17 (S. aureus M838-17 (MRSA); Table 12): 3.1 µM (≈ 4.12 µg/mL)
MIC S. aureus USA300 (MRSA) (S. aureus USA300; Table 14): 2 to 4 µM
MIC (S. aureus USA300; Table 17, strain USA300): 2 to 4 µM
HC50 at 1 hour (Hemolytic assay; 2% hRBCs, read-out: LC50): > 200 µM
MIC P. aeruginosa 411-17 (P. aeruginosa E411-17; Table 12): 12.5 µM (≈ 16.6 µg/mL)
MIC P. aeruginosa E411-17 (P. aeruginosa E411-17; Table 14): 4 to 8 µM
MIC K. pneumonia 406-17 (K. pneumoniae E406-17; Table 12): 6.25 µM (≈ 8.31 µg/mL)
MIC (K. pneumoniae E406-17; Table 14, read-out: MIC K. pneumoniae E406-17): 8 µM (≈ 10.6 µg/mL)
MIC (E. coli E423-17; Table 14, read-out: MIC E. coli E423-17): 2 µM (≈ 2.66 µg/mL)
Animal death [1]: no animal death
Mobility [1]: initial short-term reduced mobility

From patent US12173088B2, “Anti-microbial peptides” (priority 2018, dated 2024)
